Measured values as given in patent US20250144067A1, “PERSONALIZED STARVATION THERAPY FOR CANCER” (Faeth Therapeutics, Inc., priority 2021, published 2025).

tested on: NCI-H292 lung cancer cells; test: FDA drug screening, complete media vs cholesterol-free media with simvastatin (TABLE 2); assay type: cell-based, human; conditions: not given

In order of rising “Cholesterol-free media + simvastatin (0.04 μM)” value:
1. Miconazole (nitrate)  0.4137
2. Prednisolone (hemisuccinate)  0.7218
3. Oxolamine (citrate)  0.8466
4. Pergolide (mesylate)  0.9579
5. Primaquine (Diphosphate)  1.421
6. Niraparib (tosylate)  1.448
7. Potassium guaiacolsulfonate (hemihydrate)  1.702

In order of rising “Complete Media” value:
1. Miconazole (nitrate)  0.8009
2. Oxolamine (citrate)  1.01
3. Pergolide (mesylate)  1.079
4. Niraparib (tosylate)  1.091
5. Primaquine (Diphosphate)  1.652
6. Potassium guaiacolsulfonate (hemihydrate)  1.838

In order of rising Difference:
1. Niraparib (tosylate)  −0.36
2. Prednisolone (hemisuccinate)  0.06
3. Pergolide (mesylate)  0.12
4. Potassium guaiacolsulfonate (hemihydrate)  0.14
5. Oxolamine (citrate)  0.16
6. Primaquine (Diphosphate)  0.23
7. Miconazole (nitrate)  0.39

same assay, conditions: NCI-H292 cells, FDA drug library screen, cholesterol-free media with simvastatin 0.04 μM

In order of falling “Cholesterol-free media + simvastatin (0.04 μM)” value:
1. Phillyrin  1.405
2. Pixantrone (dimaleate)  1.334
3. Prucalopride (succinate)  1.172
4. Pimavanserin tartrate  1.092
5. Pasiniazid  1.047
6. Polidocanol  1.046
7. Methylergometrine (maleate)  1.017
8. Oclacitinib (maleate)  0.9891
9. Mosapride (citrate)  0.963
10. Oxaliplatin  0.8725
11. Naloxegol (oxalate)  0.8544
12. Oxeladin (citrate)  0.7029
13. Osimertinib (dimesylate)  0.4427
14. Prednisolone (disodium phosphate)  0.4379
15. Osimertinib mesylate  0.3874

same assay, conditions: NCI-H292 cells, FDA drug library screen, complete media

In order of falling “Complete Media” value:
1. Octreotide (acetate)  1.58
2. Orphenadrine (citrate)  1.525
3. Oxeladin (citrate)  1.466
4. Pasiniazid  1.325
5. Phillyrin  1.262
6. Pixantrone (dimaleate)  1.212
7. Prucalopride (succinate)  1.048
8. Pimavanserin tartrate  0.9419
9. Methylergometrine (maleate)  0.9007
10. Polidocanol  0.8917
11. Mosapride (citrate)  0.8629
12. Oclacitinib (maleate)  0.8445
13. Prednisolone (disodium phosphate)  0.7375
14. Osimertinib (dimesylate)  0.3618
15. Osimertinib mesylate  0.2672

same assay, conditions: NCI-H292 cells, FDA library drug in cholesterol-free media with simvastatin 0.04 μM

For Nelfinavir (Mesylate), the “Cholesterol-free media + simvastatin (0.04 μM)” value was 1.565.

same assay, conditions: NCI-H292 cells, FDA library drug in complete media

Nelfinavir (Mesylate) was tested, and the “Complete Media” value was 1.199.

same assay, conditions: NCI-H292 cells, cholesterol-free media with simvastatin 0.04 μM; FDA drug library screen (TABLE 2)

In order of rising “Cholesterol-free media + simvastatin (0.04 μM)” value:
1. Phentolamine (mesylate)  0.9072
2. Pazufloxacin (mesylate)  0.9357
3. Pheniramine (Maleate)  1.33

same assay, conditions: NCI-H292 cells, cholesterol-free media with simvastatin 0.04 μM; […]

In order of rising “Cholesterol-free media + simvastatin (0.04 μM)” value:
1. Oseltamivir (phosphate)  0.8277
2. Oxytocin (acetate)  0.9906

same assay, conditions: NCI-H292 cells, complete media; FDA drug library screen (TABLE 2)

In order of rising “Complete Media” value:
1. Phentolamine (mesylate)  0.8992
2. Pazufloxacin (mesylate)  0.9248
3. Pheniramine (Maleate)  1.284

same assay, conditions: NCI-H292 cells, complete media; […]

Oseltamivir (phosphate) was tested, and the “Complete Media” value was 0.8627.

same assay, conditions: NCI-H292 cells, drug in cholesterol-free media with simvastatin 0.04 μM

In order of falling “Cholesterol-free media + simvastatin (0.04 μM)” value:
1. Paromomycin (sulfate)  1.383
2. Nafamostat (mesylate)  1.2
3. Polymyxin B (Sulfate)  1.169
4. Metoprolol (Succinate)  1.072
5. Oritavancin (diphosphate)  1.021
6. Pefloxacin (mesylate)  1.02
7. Metaproterenol (hemisulfate)  1.002
8. Penbutolol (sulfate)  0.9562

same assay, conditions: NCI-H292 cells, drug in complete media

In order of rising “Complete Media” value:
1. Penbutolol (sulfate)  0.7448
2. Metaproterenol (hemisulfate)  0.7891
3. Oritavancin (diphosphate)  0.8102
4. Pefloxacin (mesylate)  0.8577
5. Metoprolol (Succinate)  0.8786
6. Polymyxin B (Sulfate)  0.9427
7. Nafamostat (mesylate)  0.9501
8. Paromomycin (sulfate)  1.216

same assay, conditions: complete media minus cholesterol-free media + simvastatin (0.04 μM); >0 enhanced anti-cancer activity, about 0 neutral, <0 antagonist

In order of falling Difference:
1. Pazufloxacin (mesylate)  −0.01
2. Phentolamine (mesylate)  −0.01
3. Pheniramine (Maleate)  −0.05

same assay, conditions: complete media minus cholesterol-free media + simvastatin; >0 enhanced anti-cancer activity, about 0 neutral, <0 antagonist

In order of rising Difference:
1. Prednisolone (disodium phosphate)  0.30
2. Orphenadrine (citrate)  0.38

same assay, conditions: complete media minus cholesterol-free media + simvastatin; […]

In order of rising Difference:
1. Oseltamivir (phosphate)  0.04
2. Oxytocin (acetate)  0.04
3. Octreotide (acetate)  0.17
4. Oxaliplatin  0.17
5. Naloxegol (oxalate)  0.21
6. Pasiniazid  0.28
7. Oxeladin (citrate)  0.76

same assay, conditions: complete media vs cholesterol-free media + simvastatin (0.04 μM); >0 enhanced anti-cancer activity, about 0 neutral, <0 antagonist

In order of rising Difference:
1. Nelfinavir (Mesylate)  −0.37
2. Nafamostat (mesylate)  −0.25
3. Metaproterenol (hemisulfate)  −0.21
4. Penbutolol (sulfate)  −0.21
5. Metoprolol (Succinate)  −0.19
6. Pefloxacin (mesylate)  −0.16
7. Oclacitinib (maleate)  −0.14
8. Pixantrone (dimaleate)  −0.12
9. Prucalopride (succinate)  −0.12
10. Mosapride (citrate)  −0.10

same assay, conditions: complete media vs cholesterol-free media + simvastatin (0.04 μM); […]

In order of rising Difference:
1. Polymyxin B (Sulfate)  −0.23
2. Oritavancin (diphosphate)  −0.21
3. Paromomycin (sulfate)  −0.17
4. Pimavanserin tartrate  −0.15
5. Polidocanol  −0.15
6. Phillyrin  −0.14
7. Methylergometrine (maleate)  −0.12
8. Osimertinib mesylate  −0.12
9. Osimertinib (dimesylate)  −0.08

tested on: NCI-H292 lung cancer cells; test: FDA drug screening, complete media vs cholesterol-free media without statin (TABLE 1); assay type: cell-based, human; conditions: not given

In order of rising Cholesterol-free:
1. Prednisolone (hemisuccinate)  0.8784
2. Miconazole (nitrate)  0.9239
3. Pergolide (mesylate)  1.027
4. Oxolamine (citrate)  1.162
5. Primaquine (Diphosphate)  1.192
6. Niraparib (tosylate)  1.671
7. Potassium guaiacolsulfonate (hemihydrate)  1.74

In order of rising Complete:
1. Prednisolone (hemisuccinate)  0.4751
2. Miconazole (nitrate)  0.8136
3. Pergolide (mesylate)  0.8214
4. Primaquine (Diphosphate)  0.8514
5. Oxolamine (citrate)  0.9128
6. Potassium guaiacolsulfonate (hemihydrate)  0.9478

In order of rising Difference:
1. Potassium guaiacolsulfonate (hemihydrate)  −0.79
2. Niraparib (tosylate)  −0.63
3. Prednisolone (hemisuccinate)  −0.40
4. Primaquine (Diphosphate)  −0.34
5. Oxolamine (citrate)  −0.25
6. Pergolide (mesylate)  −0.21
7. Miconazole (nitrate)  −0.11

same assay, conditions: Complete minus Cholesterol-free; >0 enhanced anti-cancer activity, about 0 neutral, <0 antagonist

In order of falling Difference:
1. Metoprolol (Succinate)  0.02
2. Nelfinavir (Mesylate)  −0.02
3. Pazufloxacin (mesylate)  −0.28

same assay, conditions: Complete minus Cholesterol-free; […]

In order of rising Difference:
1. Phillyrin  −0.77
2. Oritavancin (diphosphate)  −0.64
3. Oxeladin (citrate)  −0.55
4. Oseltamivir (phosphate)  −0.16
5. Oxytocin (acetate)  −0.16
6. Naloxegol (oxalate)  −0.15
7. Osimertinib mesylate  −0.14
8. Osimertinib (dimesylate)  −0.05
9. Polymyxin B (Sulfate)  −0.03

same assay, conditions: Complete minus Cholesterol-free; greater than 0 enhanced anti-cancer activity, about 0 neutral, below 0 antagonist

In order of falling Difference:
1. Orphenadrine (citrate)  −0.10
2. Oclacitinib (maleate)  −0.16

same assay, conditions: Complete minus Cholesterol-free; greater than 0 enhanced anti-cancer activity, about 0 neutral, below 0 antagonists

In order of rising Difference:
1. Penbutolol (sulfate)  −0.71
2. Pheniramine (Maleate)  −0.65
3. Phentolamine (mesylate)  −0.51

same assay, conditions: NCI-H292 cells in cholesterol-free media without statin

In order of falling Cholesterol-free:
1. Oritavancin (diphosphate)  1.626
2. Phillyrin  1.584
3. Pheniramine (Maleate)  1.526
4. Oxeladin (citrate)  1.475
5. Phentolamine (mesylate)  1.404

same assay, conditions: NCI-H292 cells in complete media

In order of falling Complete:
1. Penbutolol (sulfate)  1.219
2. Oritavancin (diphosphate)  0.9877
3. Oxeladin (citrate)  0.921
4. Phentolamine (mesylate)  0.8982
5. Pheniramine (Maleate)  0.8791
6. Phillyrin  0.8182

same assay, conditions: NCI-H292 cells, FDA drug library screen, cholesterol-free media without statin

In order of rising Cholesterol-free:
1. Osimertinib mesylate  0.3436
2. Oclacitinib (maleate)  0.7098
3. Orphenadrine (citrate)  0.8697
4. Naloxegol (oxalate)  1.025
5. Oseltamivir (phosphate)  1.28
6. Oxytocin (acetate)  1.734

same assay, conditions: NCI-H292 cells, FDA drug library screen, complete media

In order of rising Complete:
1. Osimertinib mesylate  0.1992
2. Oclacitinib (maleate)  0.5476
3. Orphenadrine (citrate)  0.768
4. Oseltamivir (phosphate)  1.117
5. Oxytocin (acetate)  1.57

same assay, conditions: NCI-H292 cells, cholesterol-free media without statin

In order of rising Cholesterol-free:
1. Pazufloxacin (mesylate)  0.9858
2. Methylergometrine (maleate)  1.022
3. Prednisolone (disodium phosphate)  1.087
4. Octreotide (acetate)  1.157
5. Pefloxacin (mesylate)  1.183
6. Nafamostat (mesylate)  1.215
7. Pimavanserin tartrate  1.261
8. Prucalopride (succinate)  1.329
9. Pixantrone (dimaleate)  1.33
10. Oxaliplatin  1.359

same assay, conditions: NCI-H292 cells, cholesterol-free media without statin, FDA drug library screen

In order of rising Cholesterol-free:
1. Osimertinib (dimesylate)  0.1916
2. Paromomycin (sulfate)  0.541
3. Polidocanol  0.7606
4. Metaproterenol (hemisulfate)  0.8425
5. Metoprolol (Succinate)  0.9592
6. Polymyxin B (Sulfate)  0.9793
7. Mosapride (citrate)  0.9953
8. Pasiniazid  1.164
9. Nelfinavir (Mesylate)  1.193

same assay, conditions: NCI-H292 cells, complete media

In order of falling Complete:
1. Oxaliplatin  0.9211
2. Prucalopride (succinate)  0.905
3. Pimavanserin tartrate  0.9005
4. Pixantrone (dimaleate)  0.8848
5. Nafamostat (mesylate)  0.8839
6. Pefloxacin (mesylate)  0.8627
7. Octreotide (acetate)  0.7258
8. Pazufloxacin (mesylate)  0.7051
9. Prednisolone (disodium phosphate)  0.6422

same assay, conditions: NCI-H292 cells, complete media, FDA drug library screen

In order of rising Complete:
1. Osimertinib (dimesylate)  0.1371
2. Polidocanol  0.9235
3. Polymyxin B (Sulfate)  0.9463
4. Metoprolol (Succinate)  0.9837
5. Paromomycin (sulfate)  1.15
6. Nelfinavir (Mesylate)  1.169
7. Mosapride (citrate)  1.241
8. Pasiniazid  1.274

same assay, conditions: complete vs cholesterol-free media; >0 enhanced anti-cancer activity, about 0 neutral, <0 antagonist

In order of falling Difference:
1. Mosapride (citrate)  0.25
2. Metaproterenol (hemisulfate)  0.09

same assay, conditions: complete vs cholesterol-free media; […]

In order of falling Difference:
1. Paromomycin (sulfate)  0.61
2. Polidocanol  0.16
3. Pasiniazid  0.11
4. Methylergometrine (maleate)  −0.31
5. Pimavanserin tartrate  −0.36
6. Octreotide (acetate)  −0.43
7. Oxaliplatin  −0.44

same assay, conditions: complete vs cholesterol-free media; greater than 0 enhanced anti-cancer activity, about 0 neutral, below 0 antagonists

In order of falling Difference:
1. Pefloxacin (mesylate)  −0.32
2. Nafamostat (mesylate)  −0.33
3. Prucalopride (succinate)  −0.42
4. Prednisolone (disodium phosphate)  −0.44
5. Pixantrone (dimaleate)  −0.45
